Like-named read-outs stand apart in the source and are kept apart here.

The conditions of the assay: oral tablets, placebo group 6 patients.

Procedure: Subjects will be stratified at randomization for use/non-use of AChE inhibitors. A target of 201 subjects (67 subjects per arm) in 3 treatment groups are enrolled for 12 Months with optional follow-on treatment after Month 12 (2 treatment groups).
The intraday dosing interval is approximately 12 hours. Study drug is instructed to be taken at approximately the same time each day during the participation in the 12-month study. Study medication may be taken with or without food.

On to `C[C@@H](C(=O)O)c1ccc(-c2ccccc2)c(F)c1` [(R)-2-(2-fluoro-4-biphenyl)propionic acid], for which the “patients exhibiting urinary incontinence” value reads like this: (400 mg BID group (800 mg/day), p value vs. placebo = 0.028) 0 patients; (800 mg BID group (1600 mg/day), p value vs. placebo = 0.063) 1 patient.

Values taken from US20070015832A1, “Methods of treating overactive bladder and urinary incontinence” (Myriad Genetics, Incorporated, priority 2005, published 2007).
